This passage reports IC50 results from US20080234262A1 (Wyeth, priority 2007, published 2008).

The test system of one assay is prostate line LNCap. In words: In vitro cell culture growth assay (MTS), LNCap. The settings on record: LNCap cells, three days after drug treatment. Format: cell-based, human.
A further assay has as its target PI3K (Homo sapiens, UniProt P42336). Put plainly: Fluorescence polarization assay for PI3K.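 Also: PI3K kinase reaction on PIP2 with ATP, 30-60 min, product sensed by GST-GRP with red probe in fluorescence polarization (mP), controls without enzyme and at zero time.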 Format: biochemical.
The test system of the next assay is breast line MDA468. In words: In vitro cell culture growth assay (MTS), MDA468. The assay is classed as cell-based, human. Particulars: MDA468 cells, three days after drug treatment. The procedure, abridged:
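MDA468 or LNCap cells received inhibitors one day after plating and were grown for three days. Viable cell density read by MTS conversion, absorbance 490 nm, expressed as percent of control growth versus vehicle-treated cells on the same plate.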

Like-named read-outs stand apart in the source and are kept apart here. Where only a bound is given, the exact number is not on record here.

PI3K, sequence (P42336 whole entry): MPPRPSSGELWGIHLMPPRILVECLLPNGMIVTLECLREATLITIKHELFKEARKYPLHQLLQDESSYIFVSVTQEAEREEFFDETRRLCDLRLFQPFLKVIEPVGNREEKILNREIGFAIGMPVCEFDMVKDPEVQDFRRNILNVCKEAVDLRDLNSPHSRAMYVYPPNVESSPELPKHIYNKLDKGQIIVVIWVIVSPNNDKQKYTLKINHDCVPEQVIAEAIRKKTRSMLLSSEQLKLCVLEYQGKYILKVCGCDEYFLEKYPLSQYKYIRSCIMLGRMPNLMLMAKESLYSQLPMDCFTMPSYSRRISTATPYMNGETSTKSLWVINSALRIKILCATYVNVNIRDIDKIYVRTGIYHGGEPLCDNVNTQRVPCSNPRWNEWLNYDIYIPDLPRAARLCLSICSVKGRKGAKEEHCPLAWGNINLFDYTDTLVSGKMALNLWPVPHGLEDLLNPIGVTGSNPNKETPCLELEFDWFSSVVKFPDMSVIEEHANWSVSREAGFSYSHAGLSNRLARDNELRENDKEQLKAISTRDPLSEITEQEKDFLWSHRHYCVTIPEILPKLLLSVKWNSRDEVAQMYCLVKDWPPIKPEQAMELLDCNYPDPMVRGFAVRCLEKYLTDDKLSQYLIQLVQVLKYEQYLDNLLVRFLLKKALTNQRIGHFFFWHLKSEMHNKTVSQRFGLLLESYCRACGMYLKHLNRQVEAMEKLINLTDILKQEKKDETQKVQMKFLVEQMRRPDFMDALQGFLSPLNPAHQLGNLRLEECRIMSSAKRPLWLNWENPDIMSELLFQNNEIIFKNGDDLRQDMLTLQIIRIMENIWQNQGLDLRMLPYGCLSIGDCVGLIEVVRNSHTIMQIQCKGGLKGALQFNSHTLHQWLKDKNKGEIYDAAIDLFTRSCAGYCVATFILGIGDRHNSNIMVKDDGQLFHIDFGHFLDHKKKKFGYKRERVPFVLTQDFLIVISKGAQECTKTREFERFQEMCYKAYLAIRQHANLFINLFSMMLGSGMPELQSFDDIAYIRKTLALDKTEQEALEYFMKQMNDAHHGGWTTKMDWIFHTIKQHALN
PI3K, sequence (P27986 whole entry partner): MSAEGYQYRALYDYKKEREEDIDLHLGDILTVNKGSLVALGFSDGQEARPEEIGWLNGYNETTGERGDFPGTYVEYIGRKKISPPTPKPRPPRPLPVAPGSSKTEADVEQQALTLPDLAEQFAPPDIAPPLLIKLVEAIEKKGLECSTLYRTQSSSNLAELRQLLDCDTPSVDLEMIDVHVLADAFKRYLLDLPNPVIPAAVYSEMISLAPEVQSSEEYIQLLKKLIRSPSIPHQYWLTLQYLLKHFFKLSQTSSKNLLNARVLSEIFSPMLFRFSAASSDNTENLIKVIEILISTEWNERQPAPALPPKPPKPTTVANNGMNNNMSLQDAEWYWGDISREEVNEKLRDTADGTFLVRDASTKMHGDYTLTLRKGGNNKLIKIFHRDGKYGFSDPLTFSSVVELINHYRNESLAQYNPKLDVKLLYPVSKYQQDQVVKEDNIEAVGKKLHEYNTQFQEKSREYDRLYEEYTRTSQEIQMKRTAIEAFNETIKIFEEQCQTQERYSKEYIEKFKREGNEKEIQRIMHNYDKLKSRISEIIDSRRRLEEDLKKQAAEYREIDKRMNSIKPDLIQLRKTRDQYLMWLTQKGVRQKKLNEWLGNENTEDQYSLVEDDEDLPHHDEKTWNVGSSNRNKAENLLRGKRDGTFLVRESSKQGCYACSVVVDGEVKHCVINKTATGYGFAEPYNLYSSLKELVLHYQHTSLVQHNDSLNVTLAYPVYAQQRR

`CNC(=O)Nc1ccc(-c2nc(N3CCOCC3)c3cnn(C4CCN(Cc5cncc(F)c5)CC4)c3n2)cc1` [Example 392, 1-[4-(1-{1-[(5-fluoropyridin-3-yl)methyl]piperidin-4-yl}-4-morpholin-4-yl-1H-pyrazolo[3,4-d]pyrimidin-6-yl)phenyl]-3-methylurea]: the IC50 is 110 nM in the assay with prostate line LNCap (Homo sapiens, LNCaP, 72 h); 153 nM on PI3K (PI3Kα, read-out: PI3Kα IC50); 600 nM with breast line MDA468 (Homo sapiens, 72 h).

On to `NS(=O)(=O)c1cccc(-c2nc(N3CCOCC3)c3cnn(C4CCN(Cc5ccccc5)CC4)c3n2)c1` [Compound 83], for which the IC50 with prostate line LNCap (Homo sapiens, LNCaP, 72 h) was found to be 4000 nM; at PI3K (PI3Kα, read-out: PI3Kα IC50), 2410 nM; in the assay with breast line MDA468 (Homo sapiens, 72 h), 7000 nM.

`CNC(=O)Nc1ccc(-c2nc(N3CCOCC3)c3cnn(C4CCNCC4)c3n2)cc1` [Compound 584, 1-methyl-3-[4-(4-morpholin-4-yl-1-piperidin-4-yl-1H-pyrazolo[3,4-d]pyrimidin-6-yl)phenyl]urea]: the half-maximal inhibitory concentration (IC50) with prostate line LNCap (Homo sapiens, LNCaP, 72 h) is 500 nM; on PI3K (PI3Kα, read-out: PI3Kα IC50) it was 22 nM; in the assay with breast line MDA468 (Homo sapiens, 72 h), 1300 nM.

Regarding `CNC(=O)Nc1ccc(-c2nc(N3CCOCC3)c3cnn(C4CCN(C(=O)c5ccc(OC)cc5)CC4)c3n2)cc1` [Example 363, 1-(4-{1-[1-(4-methoxybenzoyl)piperidin-4-yl]-4-morpholin-4-yl-1H-pyrazolo[3,4-d]pyrimidin-6-yl}phenyl)-3-methylurea], the half-maximal inhibitory concentration (IC50) in the assay on prostate line LNCap (Homo sapiens, LNCaP, 72 h) was 45 nM; on PI3K (PI3Kα, read-out: PI3Kα IC50) it was 55 nM; with breast line MDA468 (Homo sapiens, 72 h), 400 nM.

Regarding `COC(=O)Nc1ccc(-c2nc(N3CCOCC3)c3cnn(C4CCN(C(=O)OC(C)(C)C)CC4)c3n2)cc1` [Compound 772, tert-butyl 4-(6-{4-[(methoxycarbonyl)amino]phenyl}-4-morpholin-4-yl-1H-pyrazolo[3,4-d]pyrimidin-1-yl)piperidine-1-carboxylate], the IC50 was found to be 1300 nM with prostate line LNCap (Homo sapiens, LNCaP, 72 h); 5030 nM at PI3K (PI3Kα, read-out: PI3Kα IC50); 5500 nM with breast line MDA468 (Homo sapiens, 72 h).

Turning to `CNC(=O)Oc1ccc(-c2nc(N3CCOCC3)c3cnn(C4CCN(C(=O)OC)CC4)c3n2)cc1` [Compound 946, methyl 4-(6-{4-[(methylcarbamoyl)oxy]phenyl}-4-morpholin-4-yl-1H-pyrazolo[3,4-d]pyrimidin-1-yl)piperidine-1-carboxylate], the IC50 with prostate line LNCap (Homo sapiens, 72 h) was found to be 1600 nM; at PI3K (PI3Kα IC50, PI3Kα), 13000 nM; in the assay on breast line MDA468 (Homo sapiens, 72 h) it was 7000 nM.

Take `CN1CCN(C(=O)N2CCC(n3ncc4c(N5CCOCC5)nc(-c5ccc6[nH]ccc6c5)nc43)CC2)CC1` [Compound 120]: the 50% inhibitory concentration (IC50) with prostate line LNCap (Homo sapiens, LNCaP, 72 h) was found to be 700 nM; on PI3K (PI3Kα, read-out: PI3Kα IC50) it was 737 nM; in the assay on breast line MDA468 (Homo sapiens, 72 h) it was 2000 nM.

For the compound `CC(C)N1CCC(n2ncc3c(N4CCOCC4)nc(-c4ccc5[nH]ccc5c4)nc32)CC1` [Compound 488, 6-(1H-indol-5-yl)-1-(1-isopropylpiperidin-4-yl)-4-morpholin-4-yl-1H-pyrazolo[3,4-d]pyrimidine], the IC50 in the assay on prostate line LNCap (Homo sapiens, LNCaP, 72 h) stood at 2500 nM; at PI3K (PI3Kα, read-out: PI3Kα IC50), 3750 nM; with breast line MDA468 (Homo sapiens, 72 h), 2900 nM.

As to `COC(=O)Nc1ccc(-c2nc(N3CCOCC3)c3cnn(C4CCN(CC(F)(F)F)CC4)c3n2)cc1` [Compound 781, methyl (4-{4-morpholin-4-yl-1-[1-(2,2,2-trifluoroethyl)piperidin-4-yl]-1H-pyrazolo[3,4-d]pyrimidin-6-yl}phenyl)carbamate], the concentration for half-maximal inhibition (IC50) is 1800 nM in the assay on prostate line LNCap (Homo sapiens, LNCaP, 72 h); 1740 nM on PI3K (PI3Kα, read-out: PI3Kα IC50); 7900 nM in the assay with breast line MDA468 (Homo sapiens, 72 h).

Regarding `O=C(NCCO)Nc1ccc(-c2nc(N3CCOCC3)c3cnn(C4CCNCC4)c3n2)cc1` [Compound 775, 1-(2-hydroxyethyl)-3-[4-(4-morpholin-4-yl-1-piperidin-4-yl-1H-pyrazolo[3,4-d]pyrimidin-6-yl)phenyl]urea], the IC50 amounted to 26000 nM in the assay with prostate line LNCap (Homo sapiens, LNCaP, 72 h); 170 nM on PI3K (PI3Kα, read-out: PI3Kα IC50); 12000 nM in the assay on breast line MDA468 (Homo sapiens, 72 h).

As to `O=C(NCCF)Nc1ccc(-c2nc(N3CCOCC3)c3cnn(C4CCN(C(=O)c5ccccc5)CC4)c3n2)cc1` [Compound 625, 1-{4-[1-(1-benzoylpiperidin-4-yl)-4-morpholin-4-yl-1H-pyrazolo[3,4-d]pyrimidin-6-yl]phenyl}-3-(2-fluoroethyl)urea], the IC50 with prostate line LNCap was less than 27 nM; at PI3K (PI3Kα, read-out: PI3Kα IC50), 454 nM; with breast line MDA468 (Homo sapiens, 72 h) it was 27 nM.

As to `O=C(Nc1ccc(-c2nc(N3CCOCC3)c3cnn(C4CCN(Cc5cccnc5)CC4)c3n2)cc1)Nc1ccccn1` [Example 341, 1-(4-{4-morpholin-4-yl-1-[1-(pyridin-3-ylmethyl)piperidin-4-yl]-1H-pyrazolo[3,4-d]pyrimidin-6-yl}phenyl)-3-pyridin-2-ylurea], the concentration for half-maximal inhibition (IC50) in the assay with prostate line LNCap (Homo sapiens, LNCaP, 72 h) amounted to 330 nM; at PI3K (PI3Kα, read-out: PI3Kα IC50) it was 91 nM; in the assay with breast line MDA468 (Homo sapiens, 72 h), 1800 nM.

Consider `O=C(NCC1CC1)Nc1ccc(-c2nc(N3CCOCC3)c3cnn(C4CCN(Cc5ccccc5)CC4)c3n2)cc1` [Example 262, 1-{4-[1-(1-benzylpiperidin-4-yl)-4-morpholin-4-yl-1H-pyrazolo[3,4-d]pyrimidin-6-yl]phenyl}-3-(cyclopropylmethyl)urea], for which the IC50 in the assay on prostate line LNCap (Homo sapiens, LNCaP, 72 h) was 700 nM; on PI3K (PI3Kα, read-out: PI3Kα IC50), 385 nM; with breast line MDA468 (Homo sapiens, 72 h), 3000 nM.

As for `CNC(=O)Nc1ccc(-c2nc(N3CCOCC3)c3cnn(C4CCN(C(=O)c5ccc(C)nc5)CC4)c3n2)cc1` [Compound 664, 1-methyl-3-[4-(1-{1-[(6-methylpyridin-3-yl)carbonyl]piperidin-4-yl}-4-morpholin-4-yl-1H-pyrazolo[3,4-d]pyrimidin-6-yl)phenyl]urea], the IC50 with prostate line LNCap stood at 330 nM; on PI3K (PI3Kα, read-out: PI3Kα IC50), 118 nM; in the assay with breast line MDA468, 270 nM.

With `CNC(=O)Nc1ccc(-c2nc(N3CCOCC3)c3cnn(C4CCN(Cc5ccccc5Cl)CC4)c3n2)cc1` [Example 396, 1-(4-{1-[1-(2-chlorobenzyl)piperidin-4-yl]-4-morpholin-4-yl-1H-pyrazolo[3,4-d]pyrimidin-6-yl}phenyl)-3-methylurea], the IC50 in the assay with prostate line LNCap (Homo sapiens, LNCaP, 72 h) is 38 nM; on PI3K (PI3Kα, read-out: PI3Kα IC50), 35 nM; with breast line MDA468 (Homo sapiens, 72 h) it was 200 nM.

In the case of `CNC(=O)Nc1cccc(-c2nc(N3CCOCC3)c3cnn(C4CCN(Cc5ccccc5)CC4)c3n2)c1` [Compound 482, N-{3-[1-(1-benzylpiperidin-4-yl)-4-morpholin-4-yl-1H-pyrazolo[3,4-d]pyrimidin-6-yl]phenyl}-N′-methylurea], the IC50 with prostate line LNCap (Homo sapiens, LNCaP, 72 h) was found to be 5800 nM; on PI3K (PI3Kα, read-out: PI3Kα IC50), 1920 nM; in the assay with breast line MDA468 (Homo sapiens, 72 h), 6800 nM.

Regarding `COC(=O)N1CCC(n2ncc3c(N4CCOCC4)nc(-c4ccc(NC(=O)OCCN5CCN(C)CC5)cc4)nc32)CC1` [Compound 907, methyl 4-{6-[4-({[2-(4-methylpiperazin-1-yl)ethoxy]carbonyl}amino)phenyl]-4-morpholin-4-yl-1H-pyrazolo[3,4-d]pyrimidin-1-yl}piperidine-1-carboxylate], the IC50 in the assay on prostate line LNCap (Homo sapiens, LNCaP, 72 h) was 5500 nM; at PI3K (PI3Kα, read-out: PI3Kα IC50), 1850 nM; in the assay on breast line MDA468 (Homo sapiens, 72 h), 7000 nM.

For the compound `CCNC(=O)Nc1ccc(-c2nc(N3CCOCC3)c3cnn(C4CCN(Cc5cccnc5)CC4)c3n2)cc1` [Compound 563, 1-ethyl-3-(4-{4-morpholin-4-yl-1-[1-(pyridin-3-ylmethyl)piperidin-4-yl]-1H-pyrazolo[3,4-d]pyrimidin-6-yl}phenyl)urea], the IC50 in the assay on prostate line LNCap (Homo sapiens, LNCaP, 72 h) was less than 27 nM; at PI3K (PI3Kα, read-out: PI3Kα IC50), 187 nM; in the assay on breast line MDA468 (Homo sapiens, 72 h) it was 27 nM.
